Laboratory results as given in patent publication US10196364B2, “Pyrimidine carboxamides as sodium channel blockers” (Purdue Pharma L.P., priority 2013, dated 2019).

The compounds below were run against human Nav1.7 (Homo sapiens, UniProt Q15858) (assay: FLIPR sodium dye assay (CoroNa Green AM Na+ dye, primary fluorescence assay) in recombinant Nav1.7/HEK293 cells). Conditions: not given.
Type: cell-based

human Nav1.7, sequence (Q15858 1-1977 isoform Q15858-3): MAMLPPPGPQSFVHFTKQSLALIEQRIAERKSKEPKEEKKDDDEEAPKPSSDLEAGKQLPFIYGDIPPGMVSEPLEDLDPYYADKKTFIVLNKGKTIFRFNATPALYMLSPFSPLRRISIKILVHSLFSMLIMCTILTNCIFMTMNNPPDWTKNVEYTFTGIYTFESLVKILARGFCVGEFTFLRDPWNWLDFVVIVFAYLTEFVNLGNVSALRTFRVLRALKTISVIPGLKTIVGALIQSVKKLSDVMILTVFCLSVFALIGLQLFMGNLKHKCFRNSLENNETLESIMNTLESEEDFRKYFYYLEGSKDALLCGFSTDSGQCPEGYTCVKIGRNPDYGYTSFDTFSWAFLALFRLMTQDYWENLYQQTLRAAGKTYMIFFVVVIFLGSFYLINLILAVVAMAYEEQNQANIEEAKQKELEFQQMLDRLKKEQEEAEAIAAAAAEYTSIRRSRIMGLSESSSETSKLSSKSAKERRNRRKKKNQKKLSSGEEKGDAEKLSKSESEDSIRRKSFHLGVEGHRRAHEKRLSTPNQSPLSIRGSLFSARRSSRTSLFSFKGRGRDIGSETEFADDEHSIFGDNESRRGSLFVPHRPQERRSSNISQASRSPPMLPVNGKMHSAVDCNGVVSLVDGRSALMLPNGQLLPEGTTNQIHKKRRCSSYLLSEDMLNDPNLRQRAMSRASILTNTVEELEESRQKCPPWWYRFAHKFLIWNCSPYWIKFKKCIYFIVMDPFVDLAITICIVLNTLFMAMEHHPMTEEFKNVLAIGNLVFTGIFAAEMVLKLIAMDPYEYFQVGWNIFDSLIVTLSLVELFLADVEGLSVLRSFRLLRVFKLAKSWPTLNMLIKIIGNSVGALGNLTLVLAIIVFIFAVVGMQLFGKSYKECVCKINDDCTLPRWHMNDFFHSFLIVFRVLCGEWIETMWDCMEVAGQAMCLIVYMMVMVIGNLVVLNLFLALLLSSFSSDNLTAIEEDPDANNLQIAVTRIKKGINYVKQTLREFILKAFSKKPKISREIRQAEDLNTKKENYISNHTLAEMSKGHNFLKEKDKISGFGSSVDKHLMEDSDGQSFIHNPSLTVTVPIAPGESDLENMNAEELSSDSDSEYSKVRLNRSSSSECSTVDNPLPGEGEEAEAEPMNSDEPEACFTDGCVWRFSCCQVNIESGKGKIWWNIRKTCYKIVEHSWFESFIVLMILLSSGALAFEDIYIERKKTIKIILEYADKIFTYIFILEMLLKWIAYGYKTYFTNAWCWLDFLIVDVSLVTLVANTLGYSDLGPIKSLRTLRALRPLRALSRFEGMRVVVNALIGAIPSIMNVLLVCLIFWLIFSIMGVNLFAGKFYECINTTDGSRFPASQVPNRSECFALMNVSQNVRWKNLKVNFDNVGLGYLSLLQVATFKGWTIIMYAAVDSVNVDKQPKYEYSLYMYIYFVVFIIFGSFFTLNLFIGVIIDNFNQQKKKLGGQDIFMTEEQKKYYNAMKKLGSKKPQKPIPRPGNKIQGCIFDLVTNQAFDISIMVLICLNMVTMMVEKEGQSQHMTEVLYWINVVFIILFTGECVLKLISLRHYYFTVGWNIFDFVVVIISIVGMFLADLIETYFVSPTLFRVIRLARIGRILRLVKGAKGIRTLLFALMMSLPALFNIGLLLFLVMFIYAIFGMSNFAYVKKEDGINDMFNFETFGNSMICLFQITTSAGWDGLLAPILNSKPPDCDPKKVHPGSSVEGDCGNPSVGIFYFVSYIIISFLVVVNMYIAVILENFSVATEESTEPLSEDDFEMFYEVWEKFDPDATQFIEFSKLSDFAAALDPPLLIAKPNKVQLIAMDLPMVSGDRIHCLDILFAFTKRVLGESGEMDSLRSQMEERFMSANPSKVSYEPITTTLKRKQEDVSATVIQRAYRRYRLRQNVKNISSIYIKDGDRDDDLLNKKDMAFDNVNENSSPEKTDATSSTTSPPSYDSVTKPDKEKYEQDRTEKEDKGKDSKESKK

SMILES | IC50
NC(=O)c1cc(N[C@@H]2CCNC2=O)nc(-c2ccc(Oc3ccc(C(F)(F)F)cn3)cc2)n1 [compound 149, (R)-6-((2-oxopyrrolidin-3-yl)amino)-2-(4-((5-(trifluoromethyl)pyridin-2-yl)oxy)phenyl)pyrimidine-4-carboxamide] | 0.32 µM

Same assay, conditions: Table 6; CoroNa Green AM Na+ dye primary fluorescence assay; read-out: Nav1.7 Activity (μM) FLIPR assay IC50

SMILES | IC50
NC(=O)c1cc(N[C@H]2CCNC2=O)nc(N2CC3CC2CN3Cc2ccc(F)cc2)n1 (stereo partly drawn) [compound 139, 2-(5-(4-fluorobenzyl)-2,5-diazabicyclo[2.2.1]heptan-2-yl)-6-(((S)-2-oxopyrrolidin-3-yl)amino)pyrimidine-4-carboxamide] | > 20 µM
NC(=O)c1cc(N[C@H]2CCNC2=O)nc(-c2ccc(Oc3cnc(C(F)(F)F)cn3)cc2)n1 [compound 141, (S)-6-((2-oxopyrrolidin-3-yl)amino)-2-(4-((5-(trifluoromethyl)pyrazin-2-yl)oxy)phenyl)pyrimidine-4-carboxamide] | 0.74 µM
NC(=O)c1cc(N[C@H]2CCNC2=O)nc(-c2ccc(Oc3ccc(F)cc3)c(CN3CCCCC3)c2)n1 [compound 143, (S)-2-(4-(4-fluorophenoxy)-3-(piperidin-1-ylmethyl)phenyl)-6-((2-oxopyrrolidin-3-yl)amino)pyrimidine-4-carboxamide] | 1.3 µM
NC(=O)c1cc(N[C@H]2CCNC2=O)nc(-c2ccc(Oc3ccc(OCC(F)(F)F)cn3)cc2)n1 [compound 144, (S)-6-((2-oxopyrrolidin-3-yl)amino)-2-(4-((5-(2,2,2-trifluoroethoxy)pyridin-2-yl)oxy)phenyl)pyrimidine-4-carboxamide] | 1.18 µM
NC(=O)c1cc(N[C@H]2CCNC2=O)nc(-c2ccc(Oc3ccc(COCC(F)(F)F)cn3)cc2)n1 [compound 145, (S)-6-((2-oxopyrrolidin-3-yl)amino)-2-(4-((5-((2,2,2-trifluoroethoxy)methyl)pyridin-2-yl)oxy)phenyl)pyrimidine-4-carboxamide] | 1.38 µM
C[C@H](Oc1cc(C(N)=O)nc(-c2ccc(Oc3ccc(C(F)(F)F)cn3)cc2)n1)C(=O)NCCN1CCCC1 [compound 147, (S)-6-((1-oxo-1-((2-(pyrrolidin-1-yl)ethyl)amino)propan-2-yl)oxy)-2-(4-((5-(trifluoromethyl)pyridin-2-yl)oxy)phenyl)pyrimidine-4-carboxamide] | 0.54 µM
NC(=O)c1cc(N[C@H]2CCNC2=O)nc(-c2ccc(Oc3ncc(OCC(F)(F)F)cn3)cc2)n1 [compound 148, (S)-6-((2-oxopyrrolidin-3-yl)amino)-2-(4-((5-(2,2,2-trifluoroethoxy)pyrimidin-2-yl)oxy)phenyl)pyrimidine-4-carboxamide] | > 20 µM
NC(=O)c1cc(N[C@H]2CCNC2=O)nc(N2CC(Oc3ccc(C(F)(F)F)cn3)C2)n1 [compound 150, (S)-6-((2-oxopyrrolidin-3-yl)amino)-2-(3-((5-(trifluoromethyl)pyridin-2-yl)oxy)azetidin-1-yl)pyrimidine-4-carboxamide] | 0.95 µM
NC(=O)c1cc(N[C@H]2CCNC2=O)nc(-c2ccc(Oc3cnc(OCC(F)(F)F)cn3)cc2)n1 [compound 151, (S)-6-((2-oxopyrrolidin-3-yl)amino)-2-(4-((5-(2,2,2-trifluoroethoxy)pyrazin-2-yl)oxy)phenyl)pyrimidine-4-carboxamide] | 0.35 µM
NC(=O)c1cc(N[C@H]2CCNC2=O)nc(-c2ccc(Oc3ccc(C(F)(F)F)nn3)cc2)n1 [compound 152, (S)-6-((2-oxopyrrolidin-3-yl)amino)-2-(4-((6-(trifluoromethyl)pyridazin-3-yl)oxy)phenyl)pyrimidine-4-carboxamide] | > 20 µM
NC(=O)c1cc(N[C@H]2CCNC2=O)nc(-c2ccc(Oc3ccc(OCC(F)(F)F)nn3)cc2)n1 [compound 153, (S)-6-((2-oxopyrrolidin-3-yl)amino)-2-(4-((6-(2,2,2-trifluoroethoxy)pyridazin-3-yl)oxy)phenyl)pyrimidine-4-carboxamide] | 1.13 µM
NC(=O)c1cc(N[C@H]2CCNC2=O)nc(N2C3CCC2CC(Oc2ccc(C(F)(F)F)cc2-c2ccncc2)C3)n1 (stereo partly drawn) [compound 154, 6-(((S)-2-oxopyrrolidin-3-yl)amino)-2-(3-(2-(pyridin-4-yl)-4-(trifluoromethyl)phenoxy)-8-azabicyclo[3.2.1]octan-8-yl)pyrimidine-4-carboxamide] | 0.13 µM
C[C@H](Nc1cc(C(N)=O)nc(N2C3CCC2CC(Oc2ccc(C(F)(F)F)cc2-c2ccncc2)C3)n1)C(N)=O (stereo partly drawn) [compound 155, 6-(((S)-1-amino-1-oxopropan-2-yl)amino)-2-(3-(2-(pyridin-4-yl)-4-(trifluoromethyl)phenoxy)-8-azabicyclo[3.2.1]octan-8-yl)pyrimidine-4-carboxamide] | 4.1 µM
NC(=O)c1cc(N[C@H]2CCNC2=O)nc(N2C3CCC2CC(Oc2ccc(C(F)(F)F)cc2-c2cccnc2)C3)n1 (stereo partly shown) [compound 156] | 1.77 µM
O=C(O)c1cc(N[C@H]2CCNC2=O)nc(-c2ccc(Oc3ccc(C(F)(F)F)cn3)cc2)n1 [compound 157, (S)-6-((2-oxopyrrolidin-3-yl)amino)-2-(4-((5-(trifluoromethyl)pyridin-2-yl)oxy)phenyl)pyrimidine-4-carboxylic acid] | > 20 µM
NC(=O)c1cc(N[C@H]2CCNC2=O)nc(-c2ccc(Oc3ccc(F)cc3)cc2CN2CCCCC2)n1 [compound 158, (S)-2-(4-(4-fluorophenoxy)-2-(piperidin-1-ylmethyl)phenyl)-6-((2-oxopyrrolidin-3-yl)amino)pyrimidine-4-carboxamide] | 0.89 µM
NC(=O)c1cc(N[C@H]2CCNC2=O)nc(N2C3CCC2CC(Oc2ccc(F)cc2)C3)n1 (stereo partly drawn) [compound 159, 2-(3-(4-fluorophenoxy)-8-azabicyclo[3.2.1]octan-8-yl)-6-(((S)-2-oxopyrrolidin-3-yl)amino)pyrimidine-4-carboxamide] | 1.29 µM
NC(=O)c1cc(N[C@H]2CCNC2=O)nc(-c2ccc(Oc3ccc(F)cc3)cc2CN2CCCC2)n1 [compound 160, (S)-2-(4-(4-fluorophenoxy)-2-(pyrrolidin-1-ylmethyl)phenyl)-6-((2-oxopyrrolidin-3-yl)amino)pyrimidine-4-carboxamide] | 6.67 µM
C[C@H](Nc1cc(C(N)=O)nc(N2C3CCC2CC(Oc2ccc(F)cc2)C3)n1)C(N)=O (stereo partly drawn) [compound 161, 6-(((S)-1-amino-1-oxopropan-2-yl)amino)-2-(3-(4-fluorophenoxy)-8-azabicyclo[3.2.1]octan-8-yl)pyrimidine-4-carboxamide] | 3.24 µM
NC(=O)c1cc(N[C@H]2CCNC2=O)nc(-c2ccc(C(=O)c3ccc(C(F)(F)F)cn3)cc2)n1 [compound 162, (S)-6-((2-oxopyrrolidin-3-yl)amino)-2-(4-(5-(trifluoromethyl)picolinoyl)phenyl)pyrimidine-4-carboxamide] | 1.9 µM
NC(=O)c1cc(N[C@H]2CCNC2=O)nc(-c2ccc(Oc3ccc(F)cc3)cc2CNC2CC2)n1 [compound 163, (S)-2-(2-((cyclopropylamino)methyl)-4-(4-fluorophenoxy)phenyl)-6-((2-oxopyrrolidin-3-yl)amino)pyrimidine-4-carboxamide] | 1.43 µM
NC(=O)c1cc(N[C@H]2CCNC2=O)nc(-c2ccc(Oc3ccc(F)cc3)cc2Cn2cncn2)n1 [compound 164, (S)-2-(2-((1H-1,2,4-triazol-1-yl)methyl)-4-(4-fluorophenoxy)phenyl)-6-((2-oxopyrrolidin-3-yl)amino)pyrimidine-4-carboxamide] | 1.45 µM
NC(=O)c1cc(N[C@H]2CCNC2=O)nc(-c2ccc(Oc3cnc(C4CC4)cn3)cc2)n1 [compound 165, (S)-2-(4-((5-cyclopropylpyrazin-2-yl)oxy)phenyl)-6-((2-oxopyrrolidin-3-yl)amino)pyrimidine-4-carboxamide] | 1.19 µM
NC(=O)c1cc(N[C@H]2CCNC2=O)nc(Oc2ccc(Oc3ccc(C(F)(F)F)cn3)cc2)n1 [compound 166, (S)-6-((2-oxopyrrolidin-3-yl)amino)-2-(4-((5-(trifluoromethyl)pyridin-2-yl)oxy)phenoxy)pyrimidine-4-carboxamide] | 3.9 µM
NC(=O)c1cc(N[C@H]2CCNC2=O)nc(-c2ccc(Oc3ccc(F)cc3)cc2CN2CCC2)n1 [compound 167, (S)-2-(2-(azetidin-1-ylmethyl)-4-(4-fluorophenoxy)phenyl)-6-((2-oxopyrrolidin-3-yl)amino)pyrimidine-4-carboxamide] | > 20 µM
NC(=O)c1cc(N[C@H]2CCNC2=O)nc(-c2ccc(Oc3ccc(C(F)(F)F)cc3CN3CCC3)cc2)n1 [compound 168, (S)-2-(4-(2-(azetidin-1-ylmethyl)-4-(trifluoromethyl)phenoxy)phenyl)-6-((2-oxopyrrolidin-3-yl)amino)pyrimidine-4-carboxamide] | 1.73 µM
NC(=O)c1cc(N[C@H]2CCNC2=O)nc(-c2ccc(Oc3ccc(C(F)(F)F)cc3CN3CCCC3)cc2)n1 [compound 169, (S)-6-((2-oxopyrrolidin-3-yl)amino)-2-(4-(2-(pyrrolidin-1-ylmethyl)-4-(trifluoromethyl)phenoxy)phenyl) pyrimidine-4-carboxamide] | 0.74 µM
C[C@H](Nc1cc(C(N)=O)nc(-c2ccc(Oc3ccc(C(F)(F)F)cc3CN3CCCC3)cc2)n1)C(N)=O [compound 170, (S)-6-((1-amino-1-oxopropan-2-yl)amino)-2-(4-(2-(pyrrolidin-1-ylmethyl)-4-(trifluoromethyl)phenoxy)phenyl) pyrimidine-4-carboxamide] | 1.17 µM
C[C@H](Nc1cc(C(N)=O)nc(-c2ccc(Oc3ccc(C(C)(C)C)cc3)cc2)n1)C(N)=O [compound 171, (S)-6-((1-amino-1-oxopropan-2-yl)amino)-2-(4-(4-(tert-butyl)phenoxy)phenyl)pyrimidine-4-carboxamide] | 0.25 µM
NC(=O)c1cc(N[C@H]2CCNC2=O)nc(Nc2ccc(Oc3ccc(C(F)(F)F)cn3)cc2)n1 [compound 172, (S)-6-((2-oxopyrrolidin-3-yl)amino)-2-((4-((5-(trifluoromethyl)pyridin-2-yl)oxy)phenyl)amino)pyrimidine-4-carboxamide] | 2.07 µM
